Test results: patent publication US8101766B2, “Crystalline form of a biphenyl compound” (Theravance, Inc., priority 2004, dated 2012)

Assays:
[1] = molecular target: T1, hM2 receptor (Homo sapiens, UniProt P08172); assay: Blockade of oxotremorine-stimulated [35S]GTPγS binding in CHO-K1 cells expressing the hM2 receptor; format: biochemical
T1 construct: expressed in transfected cells
T1 sequence (P08172 1-466): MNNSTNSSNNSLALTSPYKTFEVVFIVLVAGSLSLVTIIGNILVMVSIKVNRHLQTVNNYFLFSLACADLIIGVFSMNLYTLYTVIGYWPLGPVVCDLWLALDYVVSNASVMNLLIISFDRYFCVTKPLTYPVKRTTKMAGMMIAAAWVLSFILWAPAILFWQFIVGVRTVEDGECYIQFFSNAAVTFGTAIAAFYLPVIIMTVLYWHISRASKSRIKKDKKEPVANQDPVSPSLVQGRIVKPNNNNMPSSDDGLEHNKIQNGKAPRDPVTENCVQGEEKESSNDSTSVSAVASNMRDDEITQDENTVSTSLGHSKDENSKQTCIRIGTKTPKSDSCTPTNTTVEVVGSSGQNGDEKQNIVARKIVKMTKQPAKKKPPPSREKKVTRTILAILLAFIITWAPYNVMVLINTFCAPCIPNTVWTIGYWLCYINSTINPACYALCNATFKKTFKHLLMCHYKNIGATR
Procedure: A. Blockade of Agonist-Mediated [^35S]GTPγS Binding
The functional potency of a test compound was determined by measuring the ability of the compound to block oxotremorine-stimulated [^35S]GTPγS binding in CHO-K1 cells expressing the hM2 receptor.
At the time of use, frozen membranes were thawed and then diluted in assay buffer with a final target tissue concentration of 5-10 μg protein per well. The membranes were briefly homogenized using a Polytron PT-2100 tissue disrupter and then added to the assay plates.
The assay plates were then incubated at 37° C. for 60 minutes. The assay plates were filtered over 1% BSA-pretreated GF/B filters using a PerkinElmer 96-well harvester. The plates were rinsed with ice-cold wash buffer for 3×3 seconds and then air or vacuum dried. Microscint-20 scintillation liquid (50 μL) was added to each well, and each plate was sealed and radioactivity counted on a Topcounter (PerkinElmer). Data were analyzed by nonlinear regression analysis with the GraphPad Prism Software package (GraphPad Software, Inc., San Diego, Calif.) using the non-linear regression, one-site competition equation. The Cheng-Prusoff equation was used to calculate the Ki, using the IC50 values of the concentration-response curve for the test compound and the oxotremorine concentration in the assay as the KD and [L], ligand concentration, respectively.

[2] = test system: MCh-induced bronchoconstriction; assay: Bronchoprotection in guinea pig model of acetylcholine-induced bronchoconstriction; format: in vivo; details: inhalation
Procedure: Duration of Bronchoprotection in Guinea Pig Models of Acetylcholine-Induced or Histamine-Induced Bronchoconstriction
To isolate muscarinic antagonist activity in the acetylcholine-induced bronchoconstriction model, the animals were administered propanolol, a compound that blocks β receptor activity, prior to the administration of acetylcholine. Duration of bronchoprotection in the histamine-induced bronchoconstriction model reflects β2 adrenergic receptor agonist activity.
Groups of 6 male guinea pigs (Duncan-Hartley (HsdPoc:DH) Harlan, Madison, Wis.) weighing between 250 and 350 g were individually identified by cage cards. Throughout the study, animals were allowed access to food and water ad libitum.
Test compounds were administered via inhalation over 10 minutes in a whole-body exposure dosing chamber (R&S Molds, San Carlos, Calif.). […] This value was measured gravimetrically by comparing pre- and post-nebulization weights of the filled nebulizer.
The bronchoprotective effects of test compounds administered via inhalation were evaluated using whole body plethysmography at 1.5, 24, 48 and 72 hours post-dose. […]
Once it was determined that baseline values were within the range of 0.3-0.9 mL/cm H2O for compliance and within the range of 0.1-0.199 cm H2O/mL per second for resistance, the pulmonary evaluation was initiated. […]

[3] = molecular target: β2 adrenergic receptor (Homo sapiens, UniProt P07550); assay: Radioligand binding assay for human β2 adrenergic receptor; set-up: expressed in transfected cells; details: radioligand displacement, CHO cell membranes
Chain of β2 adrenergic receptor (P07550 whole entry): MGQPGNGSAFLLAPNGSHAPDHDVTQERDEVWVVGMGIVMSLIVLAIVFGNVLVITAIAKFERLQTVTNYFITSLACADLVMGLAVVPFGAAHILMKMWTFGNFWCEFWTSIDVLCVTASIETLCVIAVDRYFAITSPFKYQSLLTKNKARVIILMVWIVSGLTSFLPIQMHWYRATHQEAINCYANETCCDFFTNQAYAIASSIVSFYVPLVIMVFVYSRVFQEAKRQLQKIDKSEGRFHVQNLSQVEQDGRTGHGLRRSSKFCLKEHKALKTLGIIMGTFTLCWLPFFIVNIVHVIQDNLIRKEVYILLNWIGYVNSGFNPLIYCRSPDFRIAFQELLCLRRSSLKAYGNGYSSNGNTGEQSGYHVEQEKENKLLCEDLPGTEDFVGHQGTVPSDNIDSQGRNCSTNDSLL
Procedure: The cell monolayer was lifted with 2 mM EDTA in PBS. […] All membranes were stored frozen in aliquots at −80° C. or used immediately.

**Q.** Which results are given for `COc1cc(NC(=O)CCN2CCC(OC(=O)Nc3ccccc3-c3ccccc3)CC2)c(Cl)cc1CNC[C@H](O)c1ccc(O)c2[nH]c(=O)ccc12` [compound of formula I, biphenyl-2-ylcarbamic acid 1-[2-(2-chloro-4-{[(R)-2-hydroxy-2-(8-hydroxy-2-oxo-1,2-dihydroquinolin-5-yl)ethylamino]methyl}-5-methoxyphenylcarbamoyl)ethyl]piperidin-4-yl ester]?
**A.** Ki [1]: < 10 nM; bronchoprotective effect against MCh-induced bronchoconstriction [2]: dose-dependent bronchoprotective effect; Ki [3]: < 10 nM
